How the values were obtained:
Assay type in all cases: in vivo
[1] = test system: Nilaparvata lugens (Brown Plant Hopper); test: Activity against Nilaparvata lugens (brown plant hopper), larvicide, systemic into water; conditions: 168 h, application rate 12.5 ppm, rice plants in nutritive solution, N3 nymphs, 7 days after infestation
Method: Example B9: Activity Against Nilaparvata lugens (Brown Plant Hopper) Larvicide, Systemic into Water
Rice plants cultivated in a nutritive solution were treated with the diluted test solutions into nourishing cultivation system. 1 day after application plants were infested with ˜20 N3 nymphs. 7 days after infestation samples were assessed for mortality and growth regulation.

[2] = test system: Myzus persicae (Green Peach Aphid); test: Activity against Myzus persicae (green peach aphid), feeding/contact activity; conditions: foliar, 144 h, application rate 200 ppm, sprayed sunflower leaf discs, aphid population of mixed ages, 6 days after infestation
Method: Example B2: Activity Against Myzus persicae (Green Peach Aphid) Feeding/Contact Activity
Sunflower leaf discs were placed onto agar in a 24-well microtiter plate and sprayed with aqueous test solutions prepared from 10′000 ppm DMSO stock solutions. After drying, the leaf discs were infested with an aphid population of mixed ages. The samples were assessed for mortality 6 days after infestation.

[3] = test system: Diabrotica Balteata (Corn Root Worm); test: Activity against Diabrotica balteata (corn root worm), sprayed maize sprouts; conditions: 96 h, application rate 200 ppm, L2 larvae on sprayed maize sprouts, 4 days after infestation, read-out: effect in at least one of the two categories (mortality or growth inhibition)
Method: Example B1: Activity Against Diabrotica Balteata (Corn Root Worm)
Maize sprouts placed onto an agar layer in 24-well microtiter plates were treated with aqueous test solutions prepared from 10′000 ppm DMSO stock solutions by spraying. After drying, the plates were infested with L2 larvae (6 to 10 per well). The samples were assessed for mortality and growth inhibition in comparison to untreated samples 4 days after infestation.

[4] = test system: Euschistus heros (Neotropical Brown Stink Bug); test: Activity against Euschistus heros (neotropical brown stink bug); conditions: 120 h, application rate 200 ppm, sprayed soybean leaves, N2 nymphs, 5 days after infestation, read-out: effect in at least one of the two categories (mortality or growth inhibition)
Method: Example B6: Activity Against Euschistus heros (Neotropical Brown Stink Bug)
Soybean leaves on agar in 24-well microtiter plates were sprayed with aqueous test solutions prepared from 10′000 ppm DMSO stock solutions. After drying the leaves were infested with N2 nymphs. The samples were assessed for mortality and growth inhibition in comparison to untreated samples 5 days after infestation.

[5] = test system: Chilo suppressalis (Striped Rice Stemborer); test: Activity against Chilo suppressalis (striped rice stemborer); conditions: 144 h, application rate 200 ppm, artificial diet, L2 larvae, 6 days after infestation
Method: Example B5: Activity Against Chilo suppressalis (Striped Rice Stemborer)
24-well microtiter plates with artificial diet were treated with aqueous test solutions prepared from 10′000 ppm DMSO stock solutions by pipetting. After drying, the plates were infested with L2 larvae (6-8 per well). The samples were assessed for mortality, anti-feeding effect, and growth inhibition in comparison to untreated samples 6 days after infestation. Control of Chilo suppressalis by a test sample is given when at least one of the categories mortality, anti-feedant effect, and growth inhibition is higher than the untreated sample.

[6] = test system: Carpocapsa (Cydia) Pomonella (Codling Moth); test: Activity against Carpocapsa (Cydia) pomonella (codling moth), larvicide, feeding/contact; conditions: 336 h, application rate 12.5 ppm, sprayed diet cubes, L1 larvae, 14 days after infestation
Method: Example B10: Activity Against Carpocapsa (Cydia) Pomonella (Codling Moth) Larvicide, Feeding/Contact
Diet cubes coated with paraffin were sprayed with diluted test solutions in an application chamber. After drying off the treated cubes (10 replicates) were infested with 1 L1 larvae. Samples were incubated at 26-27° C. and checked 14 days after infestation for mortality and growth inhibition.

[7] = test system: Plutella xylostella (Diamond Back Moth); test: Activity against Plutella xylostella (diamond back moth); conditions: 192 h, application rate 200 ppm, artificial diet, Plutella eggs, 8 days after infestation, read-out: effect in at least one of the two categories (mortality or growth inhibition)
Method: Example B8: Activity Against Plutella xylostella (Diamond Back Moth)
24-well microtiter plates with artificial diet were treated with aqueous test solutions prepared from 10′000 ppm DMSO stock solutions by pipetting. After drying, Plutella eggs were pipetted through a plastic stencil onto a gel blotting paper and the plate was closed with it. The samples were assessed for mortality and growth inhibition in comparison to untreated samples 8 days after infestation.

[8] = test system: Spodoptera littoralis (Egyptian Cotton Leaf Worm); test: Activity against Spodoptera littoralis (Egyptian cotton leaf worm); conditions: foliar, 72 h, application rate 200 ppm, sprayed cotton leaf discs, L1 larvae, 3 days after infestation
Method: Example B3: Activity Against Spodoptera littoralis (Egyptian Cotton Leaf Worm)
Cotton leaf discs were placed onto agar in 24-well microtiter plates and sprayed with aqueous test solutions prepared from 10′000 ppm DMSO stock solutions. After drying the leaf discs were infested with five L1 larvae. The samples were assessed for mortality, anti-feeding effect, and growth inhibition in comparison to untreated samples 3 days after infestation. Control of Spodoptera littoralis by a test sample is given when at least one of the categories mortality, anti-feedant effect, and growth inhibition is higher than the untreated sample.

[9] = test system: Bemisia tabaci (Cotton White Fly); test: Activity against Bemisia tabaci (cotton white fly); conditions: foliar, 144 h, application rate 200 ppm, sprayed cotton leaf discs, adult white flies, 6 days after incubation
Method: Example B4: Activity Against Bemisia tabaci (Cotton White Fly)
Cotton leaf discs were placed on agar in 24-well microtiter plates and sprayed with aqueous test solutions prepared from 10′000 ppm DMSO stock solutions. After drying the leaf discs were infested with adult white flies. The samples were checked for mortality 6 days after incubation.

[10] = test system: Frankliniella occidentalis (Western Flower Thrips); test: Activity against Frankliniella occidentalis (western flower thrips); conditions: foliar, 168 h, application rate 200 ppm, sprayed sunflower leaf discs, population of mixed ages, 7 days after infestation
Method: Example B7: Activity Against Frankliniella occidentalis (Western Flower Thrips)
Sunflower leaf discs were placed on agar in 24-well microtiter plates and sprayed with aqueous test solutions prepared from […] stock solutions. After drying the leaf discs were infested with a Frankliniella population of mixed ages. The samples were assessed for mortality 7 days after infestation.

[11] = test system: Myzus persicae (Green Peach Aphid); test: Myzus persicae (green peach aphid), systemic activity; conditions: 144 h, test rate 24 ppm, roots of infested pea seedlings in test solution, 6 days
Method: Example B11: Myzus persicae (Green Peach Aphid). Systemic Activity
Roots of pea seedlings infested with an aphid population of mixed ages were placed directly into aqueous test solutions prepared from 10′000 DMSO stock solutions. The samples were assessed for mortality 6 days after placing seedlings into test solutions.

CCS(=O)(=O)c1c(N2Cc3ncc(C(F)(F)F)cc3C2=O)nn2cc(C3CC3)ccc12 [Compound P1, 6-(6-cyclopropyl-3-ethylsulfonyl-pyrazolo[1,5-a]pyridin-2-yl)-3-(trifluoromethyl)-7H-pyrrolo[3,4-b]pyridin-5-one]
≥ 80%: mortality at 12.5 ppm [1] | mortality at 200 ppm [2] | percent effect (mortality or growth inhibition) at 200 ppm [3] | percent effect (mortality or growth inhibition) at 200 ppm [4] | percent control (mortality, anti-feedant effect or growth inhibition) at 200 ppm [5] | mortality at 12.5 ppm [6] | percent effect (mortality or growth inhibition) at 200 ppm [7] | percent control (mortality, anti-feedant effect or growth inhibition) at 200 ppm [8]

CCS(=O)(=O)c1c(N2Cc3ccc(OC(F)(F)F)cc3C2=O)nn2ccc(C(F)(F)F)cc12 [Compound P2, 2-[3-ethylsulfonyl-5-(trifluoromethyl)pyrazolo[1,5-a]pyridin-2-yl]-6-(trifluoromethoxy)isoindolin-1-one]
≥ 80%: mortality at 200 ppm [2] | percent effect (mortality or growth inhibition) at 200 ppm [3] | mortality at 200 ppm [9] | percent control (mortality, anti-feedant effect or growth inhibition) at 200 ppm [5] | mortality at 12.5 ppm [6] | percent effect (mortality or growth inhibition) at 200 ppm [7] | percent control (mortality, anti-feedant effect or growth inhibition) at 200 ppm [8]

CCS(=O)(=O)c1c(N2Cc3ccc(S(=O)(=O)C(F)(F)F)cc3C2=O)nn2ccc(C(F)(F)F)cc12 [Compound P3, 2-[3-ethylsulfonyl-5-(trifluoromethyl)pyrazolo[1,5-a]pyridin-2-yl]-6-(trifluoromethylsulfonyl)isoindolin-1-one]
≥ 80%: mortality at 200 ppm [2] | percent effect (mortality or growth inhibition) at 200 ppm [3] | mortality at 200 ppm [10] | percent control (mortality, anti-feedant effect or growth inhibition) at 200 ppm [5] | mortality at 12.5 ppm [6] | percent effect (mortality or growth inhibition) at 200 ppm [7] | percent control (mortality, anti-feedant effect or growth inhibition) at 200 ppm [8]

CCS(=O)(=O)c1c(N2Cc3ncc(C(F)(F)F)cc3C2=O)nn2cc(C3(C#N)CC3)ccc12 [Compound P4, 1-[3-ethylsulfonyl-2-[5-oxo-3-(trifluoromethyl)-7H-pyrrolo[3,4-b]pyridin-6-yl]pyrazolo[1,5-a]pyridin-6-yl]cyclopropanecarbonitrile]
≥ 80%: mortality at 12.5 ppm [1] | mortality at 200 ppm [2] | percent effect (mortality or growth inhibition) at 200 ppm [3] | percent effect (mortality or growth inhibition) at 200 ppm [4] | mortality at 200 ppm [10] | percent control (mortality, anti-feedant effect or growth inhibition) at 200 ppm [5] | mortality at 12.5 ppm [6] | percent effect (mortality or growth inhibition) at 200 ppm [7] | percent control (mortality, anti-feedant effect or growth inhibition) at 200 ppm [8]

CCS(=O)(=O)c1c(N2Cc3ncc(C(F)(F)F)cc3C2=O)nn2ccc(C(F)(F)F)cc12 [Compound P5, 6-[3-ethylsulfonyl-5-(trifluoromethyl)pyrazolo[1,5-a]pyridin-2-yl]-3-(trifluoromethyl)-7H-pyrrolo[3,4-b]pyridin-5-one]
≥ 80%: mortality at 12.5 ppm [1] | percent effect (mortality or growth inhibition) at 200 ppm [3] | percent effect (mortality or growth inhibition) at 200 ppm [4] | percent control (mortality, anti-feedant effect or growth inhibition) at 200 ppm [5] | mortality at 12.5 ppm [6] | percent effect (mortality or growth inhibition) at 200 ppm [7] | percent control (mortality, anti-feedant effect or growth inhibition) at 200 ppm [8]

CCS(=O)(=O)c1c(N2Cc3ncc(C(F)(F)F)cc3C2=O)nn2cc(C(F)(F)F)ccc12 [Compound P6, 6-[3-ethylsulfonyl-6-(trifluoromethyl)pyrazolo[1,5-a]pyridin-2-yl]-3-(trifluoromethyl)-7H-pyrrolo[3,4-b]pyridin-5-one]
≥ 80%: mortality at 12.5 ppm [1] | mortality at 200 ppm [2] | percent effect (mortality or growth inhibition) at 200 ppm [3] | percent control (mortality, anti-feedant effect or growth inhibition) at 200 ppm [5] | mortality at 12.5 ppm [6] | percent effect (mortality or growth inhibition) at 200 ppm [7] | percent control (mortality, anti-feedant effect or growth inhibition) at 200 ppm [8]

CCS(=O)(=O)c1c(N2Cc3ncc(C(F)(F)F)cc3C2=O)nn2cc(C(C)(C)C#N)ccc12 [Compound P7, 2-[3-ethylsulfonyl-2-[5-oxo-3-(trifluoromethyl)-7H-pyrrolo[3,4-b]pyridin-6-yl]pyrazolo[1,5-a]pyridin-6-yl]-2-methyl-propanenitrile]
≥ 80%: mortality at 200 ppm [2] | percent effect (mortality or growth inhibition) at 200 ppm [3] | percent effect (mortality or growth inhibition) at 200 ppm [4] | mortality at 200 ppm [10] | percent control (mortality, anti-feedant effect or growth inhibition) at 200 ppm [5] | percent effect (mortality or growth inhibition) at 200 ppm [7] | percent control (mortality, anti-feedant effect or growth inhibition) at 200 ppm [8] | mortality at 24 ppm [11]

From patent publication US20230348496A1, “PESTICIDALLY ACTIVE HETEROCYCLIC DERIVATIVES WITH SULFUR CONTAINING SUBSTITUENTS” (SYNGENTA CROP PROTECTION AG, priority 2020, published 2023)
